System: SPOP MATH domain
Assay: Linear free energy relationship (LFER) analysis of binding to SPOP MATH wildtype and mutant variants
Conditions: LFER over MATH wildtype and mutant variants
From the text: A powerful method used to address the mechanism of binding between ligands is to study the effect of structural perturbation on the transition and ground states. This approach, classically denoted as Leffler or Linear Free Energy Relationship (LFER) analysis, aims at analyzing the correlation of the change in activation free energy to the change in equilibrium free energy; LFER analysis has been used in organic chemistry, protein folding, enzymology, and protein–protein interaction studies to decipher the position of the transition state of a reaction along the reaction coordinates. The analysis of the dependences of the microscopic association and dissociation rate constants over the equilibrium constant of each MATH variant to Puc and MacroH2A are reported in Figure 5.
Figure 5 Linear free energy relationship for the binding of MATH wildtype and mutant variants to the peptides Puc (panels (A,B)) and MacroH2A (panels (C,D)). Panels (A,C) represent the dependences of the microscopic association rate constant kon on the equilibrium dissociation constant. Panels (B,D) represent the dependences of the microscopic dissociation rate constant koff on the equilibrium dissociation constant. The blue and red dots represent the dependences of kon or koff on the equilibrium dissociation constant (KD), respectively.

DEVTSTTSSS [Puc]
slope of log koff versus log KD: 0.36 ± 0.09 | slope of log kon vs. log KD: −0.64 ± 0.09

KAASADSTTEGTPAD [MacroH2A]
slope of log koff versus log KD: 0.02 ± 0.11 | slope of log kon vs. log KD: −0.98 ± 0.11
